Experimental findings from patent US7109225B2, “Substituted oxazole derivatives” (Hofmann-la Roche Inc., priority 2002, dated 2006) are described below.

In data set [1] the target is T1, PPARα (Homo sapiens, UniProt Q07869).
T1 sequence (Q07869 167-468 limits assumed): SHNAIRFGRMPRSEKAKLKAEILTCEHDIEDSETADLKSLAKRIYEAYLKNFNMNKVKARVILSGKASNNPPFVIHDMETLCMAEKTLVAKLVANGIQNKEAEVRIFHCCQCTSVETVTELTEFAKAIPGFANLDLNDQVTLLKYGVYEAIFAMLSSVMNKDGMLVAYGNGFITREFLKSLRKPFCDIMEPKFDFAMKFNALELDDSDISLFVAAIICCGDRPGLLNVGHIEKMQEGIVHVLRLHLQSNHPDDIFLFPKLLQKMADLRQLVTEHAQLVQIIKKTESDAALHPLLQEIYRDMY
In words: Luciferase transcriptional reporter gene assay, BHK21 cells transfected with pFA-PPARα-LBD. The format is cell-based. Also noted: PPARα (aa 167 to 469); expressed in transfected cells; host or cells: BHK21 (ATCC CCL10). To be noted: Gal4-PPARα-LBD. An excerpt:
(§1) Full-length cDNA clones for human PPARα and mouse PPARγ were obtained by RT-PCR from human adipose and mouse liver cRNA, respectively, cloned into plasmid vectors and verified by DNA sequencing. […] To accomplish this, the portions of the cloned sequences encoding the LBDs were amplified from the full-length clones by PCR and then subcloned into the plasmid vectors. Final clones were verified by DNA sequence analysis.
(§2) Luciferase Transcriptional Reporter Gene Assays
(§3) Baby hamster kidney cells (BHK21 ATCC CCL10) were grown in DMEM medium containing 10% FBS at 37° C. in a 95%02:5%CO2 atmosphere. Cells were seeded in 6 well plates at a density of 10^5 Cells/well and then batch-transfected with either the pFA-PPARγ-LBD or pFA-PPARα-LBD expression plasmids plus a reporter plasmid and an expression plasmid encoding the secretable form of alkaline phosphatase (SEAP) as a normalization control. […] Six hours following transfection, the cells were harvested by trypsinization and seeded in 96 well plates at a density of 10^4 cells/well. After 24 hours to allow attachment of cells, the medium was removed and replaced with 100 ul of phenol red-free medium containing the test substances or control ligands (final DMSO concentration: 0.1%). Following incubation of the cells for 24 hours with substances, 50 ul of the supernatant was recovered and analyzed for SEAP activity (Roche Molecular Biochemicals). The remainder of the supernatant was discarded, 50 ul PBS was added per well followed by one volume of Luciferase Constant-Light Reagent (Roche Molecular Biochemicals) to lyse the cells and initiate the luciferase reaction. Luminescence for both SEAP and luciferase was measured in a Packard TopCount. Luciferase activity was normalized to the SEAP control and transcriptional activation in the presence of a test substance was expressed as fold-activation over cells incubated in the absence of the substance. EC50 values were calculated using the XLfit program (ID Business Solutions Ltd. UK).

For data set [2], the target named is T2, PPARγ (Mus musculus, UniProt P37238).
T2 sequence (P37238 204-505): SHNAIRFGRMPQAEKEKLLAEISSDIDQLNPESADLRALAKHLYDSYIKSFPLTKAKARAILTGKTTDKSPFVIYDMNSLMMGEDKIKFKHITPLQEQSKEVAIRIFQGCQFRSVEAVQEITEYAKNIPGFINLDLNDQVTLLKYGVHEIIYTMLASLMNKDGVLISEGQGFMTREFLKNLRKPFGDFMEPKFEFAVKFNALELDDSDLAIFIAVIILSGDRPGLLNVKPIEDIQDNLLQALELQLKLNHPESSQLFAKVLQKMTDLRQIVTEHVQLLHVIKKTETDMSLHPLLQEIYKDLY
Put plainly: Luciferase transcriptional reporter gene assay, BHK21 cells transfected with pFA-PPARγ-LBD. It is filed as cell-based. Also noted: PPARγ (aa 174 to 476); expressed in transfected cells; host or cells: BHK21 (ATCC CCL10). To be noted: Gal4-PPARγ-LBD.
Source text: (§4) Full-length cDNA clones for human PPARα and mouse PPARγ were obtained by RT-PCR from human adipose and mouse liver cRNA, respectively, cloned into plasmid vectors and verified by DNA sequencing. Bacterial and mammalian expression vectors were constructed to produce glutathione-s-transferase (GST) and Gal4 DNA binding domain proteins fused to the ligand binding domains (LBD) of PPARγ (aa 174 to 476) and PPARα (aa 167 to 469). To accomplish this, the portions of the cloned sequences encoding the LBDs were amplified from the full-length clones by PCR and then subcloned into the plasmid vectors. Final clones were verified by DNA sequence analysis.
as §2, §3
For orientation: A reporter such as luciferase makes a cellular process visible.

The target of data set [3] is T2, PPARγ. Put plainly: Radioligand binding assay (scintillation proximity), GST-PPARγ-LBD fusion protein. Also noted: PPARγ (aa 174 to 476). As to conditions: radioligand binding (SPA).
Source text: Background information on the performed assays can be found in: Nichols J S et al. “Development of a scintillation proximity assay for peroxisome proliferator-activated receptor gamma ligand binding domain”, (1998) Anal. Biochem. 257: 112–119.
as §4
(§5) Induction, expression, and purification of GST-LBD fusion proteins were performed in E. coli strain BL21 (pLysS) cells by standard methods (Ref: Current Protocols in Molecular Biology, Wiley Press, edited by Ausubel et al.).
(§6) Radioligand Binding Assay
PPARγ receptor binding was assayed in TKE50 (50 mM Tris-HCl, pH 8, 50 mM KCl, 2 mM EDTA, 0.1 mg/ml fatty acid-free BSA and 10 mM DTT). For each 96 well reaction an 140 ng equivalent of GST-PPARγ-LBD fusion protein was bound to 10 ug SPA beads (PharmaciaAmersham) in a final volume of 50 ul by shaking. The resulting slurry was incubated for 1 h at RT and centrifuged for 2 min at 1300 g. The supernatant containing unbound protein was removed and the semidry pellet containig the recptor-coated beads was resolved in 50 ul of TKE. For radioligand binding e.g. 10000 dpm 2(S)-(2-benzoyl-phenylamino)-3-{4-[1,1-ditritio-2-(5-methyl-2-phenyl-oxazol-4-yl)-ethoxy]-phenyl}-propionic acid in 50 ul were added, the reaction incubated at RT for 1 h and scintillation proximity counting performed. All binding assays were performed in 96 well plates and the amount of bound ligand measured on a Packard TopCount using OptiPlates (Packard). Nonspecific binding was determined in the presence of 10^−4 M unlabelled compound. Dose response curves were done in triplicates within a range of concentration from 10^−10 M to 10^−4 M.

The target in data set [4] is T1, PPARα. In words: Radioligand binding assay, GST-PPARα-LBD fusion protein. Also noted: PPARα (aa 167 to 469).
Source text: as §1, §5, §6
PPARα receptor binding was assayed in TKE10 (10 mM Tris-HCl, pH 8, 50 mM KCl, 2 mM EDTA, 0.1 mg/ml fatty acid free BSA and 10 mM DTT). […]
PPARγ receptor binding was assayed in TKE50 (50 mM Tris-HCl, pH 8, 50 mM KCl, 2 mM EDTA, 0.1 mg/ml fatty acid-free BSA and 10 mM DTT). […] All binding assays were performed in 96 well plates and the amount of bound ligand measured on a Packard TopCount using OptiPlates (Packard). Nonspecific binding was determined in the presence of 10^−4 M unlabelled compound. […]

Take `CCO[C@@H](Cc1ccc(OCCc2nc(C(C)(C)C)oc2C)c2ccccc12)C(=O)O` [Example 1, (S)-3-{4-[2-(2-tert-Butyl-5-methyl-oxazol-4-yl)-ethoxy]-naphthalen-1-yl}-2-ethoxy-propionic acid]: the melting point was 103 to 105 °C. In addition, the response in data set [1] was half-maximal at 35 nM (EC50). This compound also showed an EC50 in data set [2] of 237 nM. This compound also registered an IC50 in data set [3] of 153 nM. This compound came in with an IC50 in data set [4] of 53 nM.
The compound `Cc1oc(C(C)(C)C)nc1CCOc1ccc(CC(OC(C)C)C(=O)O)c2sccc12` (stereo not shown) [Example 8, 3-{4-[2-(2-tert-Butyl-5-methyl-oxazol-4-yl)-ethoxy]-benzo[b]thiophen-7-yl}-2-isopropoxy-propionic acid] had a melting point of 159 to 160 °C. This compound also registered an EC50 in data set [1] of 27 nM. The compound further returned an EC50 in data set [2] of 19 nM. This compound returned an IC50 in data set [3] of 69 nM.
`CCCOC(Cc1ccc(OCCc2nc(C3CCCCC3)oc2C)c2ccccc12)C(=O)O` (stereo not shown) [Example 28, 3-{4-[2-(2-Cyclohexyl-5-methyl-oxazol-4-yl)-ethoxy]-naphthalen-1-yl}-2-propoxy-propionic acid] registered a melting point of 106 to 107 °C.
Consider `CCCOC(Cc1ccc(OCCc2nc(C3CC3)oc2C)c2ccsc12)C(=O)O` (stereo not shown) [Example 31, 3-{4-[2-(2-Cyclopropyl-5-methyl-oxazol-4-yl)-ethoxy]-benzo[b]thiophen-7-yl}-2-propoxy-propionic acid], for which the melting point was in the range of 61 to 63 °C. Besides, in data set [1], a half-maximal effect (EC50) was put at 62 nM. Further, the EC50 in data set [2] was 80 nM. In data set [3], this compound came in with an IC50 of 202 nM.
As for `CCCOC(Cc1ccc(OCCc2nc(CC(C)(C)C)oc2C)c2ccccc12)C(=O)O` (stereo not shown) [Example 33, 3-(4-{2-[2-(2,2-Dimethyl-propyl)-5-methyl-oxazol-4-yl]-ethoxy}-naphthalen-1-yl)-2-propoxy-propionic acid], the EC50 in data set [1] came out at 6 nM; in data set [2], 67 nM. Also, the half-inhibitory concentration (IC50) in data set [3] was determined as 162 nM.
`CCOC(Cc1ccc(OCc2nc(C3CC3)oc2C)c2ccccc12)C(=O)O` (stereo not shown) [Example 38, 3-[4-(2-Cyclopropyl-5-methyl-oxazol-4-ylmethoxy)-naphthalen-1-yl]-2-ethoxy-propionic acid]: the melting point lay within 166 to 168 °C.
Turning to `Cc1oc(C2CC2)nc1COc1ccc(CC(OC(C)C)C(=O)O)c2ccccc12` (stereo not shown) [Example 40, 3-[4-(2-Cyclopropyl-5-methyl-oxazol-4-ylmethoxy)-naphthalen-1-yl]-2-isopropoxy-propionic acid], the melting point is 129 to 130 °C.
The same measure, in the same setting: with `CCCOC(Cc1ccc(OCc2nc(C3CC3)oc2C)c2ccsc12)C(=O)O` (stereo not shown) [Example 41, 3-[4-(2-Cyclopropyl-5-methyl-oxazol-4-ylmethoxy)-benzo[b]thiophen-7-yl]-2-propoxy-propionic acid] the figure was 88 to 89 °C; with `Cc1oc(C2CC2)nc1COc1ccc(CC(OC(C)C)C(=O)O)c2sccc12` (stereo not shown) [Example 42, 3-[4-(2-Cyclopropyl-5-methyl-oxazol-4-ylmethoxy)-benzo[b]thiophen-7-yl]-2-isopropoxy-propionic acid], 71 to 72 °C.
Still for that read-out and setting: with `CCOC(Cc1ccc(OCc2nc(C3CC3)oc2C)c2ccsc12)C(=O)O` (stereo not shown) [Example 43, 3-[4-(2-Cyclopropyl-5-methyl-oxazol-4-ylmethoxy)-benzo[b]thiophen-7-yl]-2-ethoxy-propionic acid] the figure was 153 to 154 °C.

The term EC50 denotes the midpoint of the concentration-response curve. Higher therefore signals lower potency in that assay. Broadly, the melting point is the temperature of the solid-liquid transition. What is called IC50 is the concentration needed to halve the response being measured. The low end stands for greater potency, the high end for weaker potency.
